{"source": "patent US20080103205A1", "about": "“Pesticidal compositions and methods of use” (priority 2006, published 2008)", "key": {"[1]": {"test_system": "H. megidis", "details": "concentrations up to 200 ug/ml; cited from earlier work"}, "[2]": {"test_system": "a variety of nematode species, including Caenorhabditis elegans and Meloidogyne incognita", "details": "100 ppm; cited from earlier work"}, "[3]": {"test_system": "Heterorhabditis bacteriophora", "assay": "Toxicity test, infective juveniles (J3) of Heterorhabditis bacteriophora", "assay_type": "in vivo", "details": "200 ppm, up to 168 hrs of exposure", "protocol": "Toxicity tests were conducted using infective juveniles (J3) of H. bacteriophora collected from infested Galleria mellonella larvae. Test solution (280 ul) was placed in a well of a 96-well plate and 20 ul aqueous solution containing nematodes was added. The nematodes in 20 ul solution ranged from 15 to 21 (n=10). Plates were sealed with Parafilm™ and incubated at room temperature. Similar tests conducted with 0.2% DMSO alone served as controls. Stock solution prepared in DMSO was added to wells to achieve 200 ppm. Nematode mortality was checked at 24, 48, 72, 120, and 168 hr after incubation. Nematodes that were motionless for 30 seconds when observed under stereo microscope were considered dead and included in mortality counts. Each concentration was replicated five times.\nThis broad cross resistance supports a role for AT blockers in the action of these compounds."}, "[4]": {"test_system": "voltage-gated chloride channels", "details": "cited from earlier work"}}, "note": "Entries after “also recorded” stand apart in the source; their conditions may differ.", "data": [{"compound": "CC(C)c1c(O)cc(/C=C/c2ccccc2)cc1O", "note": "[DST]", "values": [{"measurement": "sensitivity to DST", "setting": "[1]", "result": "completely insensitive"}, {"measurement": "24 hr lethality", "setting": "[2]", "result": 100, "unit": "%"}]}, {"compound": "CCOP(=S)(OCC)Oc1nc(Cl)c(Cl)cc1Cl", "note": "[chlorpyrifos]", "values": [{"measurement": "toxicity (FIG. 4)", "setting": "[3]", "result": "fully susceptible; also recorded: quite active in killing"}]}, {"compound": "Cl[C@H]1[C@H](Cl)[C@@H](Cl)[C@@H](Cl)[C@H](Cl)[C@H]1Cl", "note": "[lindane]", "values": [{"measurement": "potency as inhibitor of [35S]TBPS binding, Torpedo membranes versus rat brain", "setting": "[4]", "result": "about 4 fold"}]}]}
